Laboratory results taken from ChEMBL document CHEMBL4118220, “Design, synthesis and biological evaluation of phosphopeptides as Polo-like kinase 1 Polo-box domain inhibitors” (Bioorg Med Chem, 2018).
Each block holds one molecule with its values, some of them ahead of it. Active and inactive are the calls of the source. The calls are words filed in the database; no cut-off is given here. Square brackets hold non-standard residues; d marks the D form. Peptide text beside a SMILES is read from it. Phe(4-NO2) = N[C@@H](Cc1ccc([N+](=O)[O-])cc1)C(=O)O; Phe(3,4-Cl2) = N[C@@H](Cc1ccc(Cl)c(Cl)c1)C(=O)O; Phe(4-Cl) = N[C@@H](Cc1ccc(Cl)cc1)C(=O)O; Phe(4-F) = N[C@@H](Cc1ccc(F)cc1)C(=O)O; pT = C[C@@H](OP(=O)(O)O)[C@H](N)C(=O)O

Tests used:
[1] = molecular target: Serine/threonine-protein kinase PLK2 (Homo sapiens, UniProt Q9NYY3); assay: Inhibition of FITC-GPMQTSpTPKNG-OH binding to Plk2 PBD (unknown origin) after 30 mins by fluorescence polarization assay
[2] = molecular target: Serine/threonine-protein kinase PLK3 (Homo sapiens, UniProt Q9H4B4); assay: Inhibition of FITC-GPLATSpTPKNG-OH binding to Plk3 PBD (unknown origin) after 30 mins by fluorescence polarization assay
HeLa [3] = assay: Induction of apoptosis in human HeLa cells assessed as viable cells at 5 uM after 48 hrs by Annexin V-FITC/propidium iodide staining based flow cytometry (reference value: 39.5%); type: functional; conditions: read-out: Activity
HeLa [4] = assay: Cell cycle arrest in human HeLa cells assessed as decrease in G2/M phase at 20 uM after 48 hrs by propidium iodide staining based flow cytometry relative to control; type: functional; design: scale not given: the % may be the effect or the level left
HeLa [5] = assay: Cell cycle arrest in human HeLa cells assessed as decrease in G2/M phase at 20 uM after 12 hrs by propidium iodide staining based flow cytometry relative to control; type: functional
HeLa [6] = assay: Cell cycle arrest in human HeLa cells assessed as decrease in G0/G1 phase at 5 to 20 uM after 48 hrs by propidium iodide staining based flow cytometry; type: functional
HeLa [7] = assay: Induction of apoptosis in human HeLa cells assessed as necrotic cells at 10 uM after 48 hrs by Annexin V-FITC/propidium iodide staining based flow cytometry (reference value: 0.5%); type: functional
HeLa [8] = assay: Induction of apoptosis in human HeLa cells assessed as early apoptotic cells at 20 uM after 48 hrs by Annexin V-FITC/propidium iodide staining based flow cytometry (reference value: 0%); type: functional
HeLa [9] = assay: Induction of morphological changes in human HeLa cells assessed as nuclei fragmentation at 5 to 20 uM after 48 hrs by Hoechst 33258 staining based fluorescence microscopy; type: functional, cell-based
HeLa [10] = assay: Decrease in cyclin B1 expression level in human HeLa cells after 48 hrs by Western blot analysis; type: functional, cell-based
HeLa [11] = assay: Induction of apoptosis in human HeLa cells assessed as viable cells at 10 uM after 48 hrs by Annexin V-FITC/propidium iodide staining based flow cytometry (reference value: 39.5%); type: functional; conditions: read-out: Activity
HeLa [12] = assay: Induction of apoptosis in human HeLa cells assessed as late apoptotic cells at 10 uM after 48 hrs by Annexin V-FITC/propidium iodide staining based flow cytometry (reference value: 0%); type: functional
HeLa [13] = assay: Induction of apoptosis in human HeLa cells assessed as necrotic cells at 5 uM after 48 hrs by Annexin V-FITC/propidium iodide staining based flow cytometry (reference value: 0.5%); type: functional
HeLa [14] = assay: Induction of apoptosis in human HeLa cells assessed as viable cells at 20 uM after 48 hrs by Annexin V-FITC/propidium iodide staining based flow cytometry (reference value: 39.5%); type: functional; conditions: read-out: Activity
HeLa [15] = assay: Cell cycle arrest in human HeLa cells assessed as decrease in G2/M phase at 20 uM after 24 hrs by propidium iodide staining based flow cytometry relative to control; type: functional; design: scale not given: the % may be the effect or the level left
HeLa [16] = assay: Induction of morphological changes in human HeLa cells at 5 to 20 uM after 48 hrs by Hoechst 33258 staining based fluorescence microscopy; type: functional, cell-based
HeLa [17] = assay: Induction of apoptosis in human HeLa cells assessed as necrotic cells at 20 uM after 48 hrs by Annexin V-FITC/propidium iodide staining based flow cytometry (reference value: 0.5%); type: functional
HeLa [18] = assay: Induction of apoptosis in human HeLa cells assessed as early apoptotic cells at 5 uM after 48 hrs by Annexin V-FITC/propidium iodide staining based flow cytometry (reference value: 0%); type: functional
HeLa [19] = assay: Induction of apoptosis in human HeLa cells after 48 hrs by Annexin V-FITC/propidium iodide staining based flow cytometry; type: functional, cell-based
[20] = Drug uptake in nucleus of human HeLa cells after 3 hrs by DAPI staining based confocal laser scanning microscopy; type: ADME, subcellular
HeLa [21] = assay: Induction of apoptosis in human HeLa cells assessed as late apoptotic cells at 5 uM after 48 hrs by Annexin V-FITC/propidium iodide staining based flow cytometry (reference value: 0%); type: functional
HeLa [22] = assay: Cell cycle arrest in human HeLa cells assessed as accumulation at G2/M phase at 5 to 20 uM after 48 hrs by propidium iodide staining based flow cytometry; type: functional
HeLa [23] = assay: Decrease in CDK1 expression level in human HeLa cells after 48 hrs by Western blot analysis; type: functional, cell-based
HeLa [24] = assay: Cell cycle arrest in human HeLa cells assessed as decrease in S phase at 5 to 20 uM after 48 hrs by propidium iodide staining based flow cytometry; type: functional
HeLa [25] = assay: Induction of apoptosis in human HeLa cells assessed as late apoptotic cells at 20 uM after 48 hrs by Annexin V-FITC/propidium iodide staining based flow cytometry (reference value: 0%); type: functional
HeLa [26] = assay: Induction of morphological changes in human HeLa cells assessed as chromatin condensation at 5 to 20 uM after 48 hrs by Hoechst 33258 staining based fluorescence microscopy; type: functional, cell-based
HeLa [27] = assay: Induction of apoptosis in human HeLa cells assessed as caspase 3 cleavage after 48 hrs by Western blot analysis; type: functional, cell-based
HeLa [28] = assay: Induction of apoptosis in human HeLa cells assessed as early apoptotic cells at 10 uM after 48 hrs by Annexin V-FITC/propidium iodide staining based flow cytometry (reference value: 0%); type: functional
HeLa [29] = assay: Induction of apoptosis in human HeLa cells assessed as PARP cleavage after 48 hrs by Western blot analysis; type: functional, cell-based

Serine/threonine-protein kinase PLK3, sequence (Q9H4B4 whole entry): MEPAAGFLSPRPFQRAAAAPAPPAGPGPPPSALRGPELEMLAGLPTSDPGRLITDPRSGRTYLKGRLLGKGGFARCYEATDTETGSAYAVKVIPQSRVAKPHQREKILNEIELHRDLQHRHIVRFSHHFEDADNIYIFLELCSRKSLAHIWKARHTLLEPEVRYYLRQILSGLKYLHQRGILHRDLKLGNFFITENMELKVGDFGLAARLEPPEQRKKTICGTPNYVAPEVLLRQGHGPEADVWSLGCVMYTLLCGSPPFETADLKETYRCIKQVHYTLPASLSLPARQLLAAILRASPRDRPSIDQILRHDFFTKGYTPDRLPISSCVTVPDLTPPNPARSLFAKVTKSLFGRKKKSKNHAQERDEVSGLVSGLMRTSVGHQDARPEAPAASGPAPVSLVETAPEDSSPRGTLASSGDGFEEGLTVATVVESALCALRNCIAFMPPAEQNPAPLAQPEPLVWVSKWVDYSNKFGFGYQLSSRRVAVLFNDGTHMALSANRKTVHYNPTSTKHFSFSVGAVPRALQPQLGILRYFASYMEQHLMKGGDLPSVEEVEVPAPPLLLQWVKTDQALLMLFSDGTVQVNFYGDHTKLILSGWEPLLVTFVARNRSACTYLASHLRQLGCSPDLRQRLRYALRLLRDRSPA
Serine/threonine-protein kinase PLK2, sequence (Q9NYY3 whole entry): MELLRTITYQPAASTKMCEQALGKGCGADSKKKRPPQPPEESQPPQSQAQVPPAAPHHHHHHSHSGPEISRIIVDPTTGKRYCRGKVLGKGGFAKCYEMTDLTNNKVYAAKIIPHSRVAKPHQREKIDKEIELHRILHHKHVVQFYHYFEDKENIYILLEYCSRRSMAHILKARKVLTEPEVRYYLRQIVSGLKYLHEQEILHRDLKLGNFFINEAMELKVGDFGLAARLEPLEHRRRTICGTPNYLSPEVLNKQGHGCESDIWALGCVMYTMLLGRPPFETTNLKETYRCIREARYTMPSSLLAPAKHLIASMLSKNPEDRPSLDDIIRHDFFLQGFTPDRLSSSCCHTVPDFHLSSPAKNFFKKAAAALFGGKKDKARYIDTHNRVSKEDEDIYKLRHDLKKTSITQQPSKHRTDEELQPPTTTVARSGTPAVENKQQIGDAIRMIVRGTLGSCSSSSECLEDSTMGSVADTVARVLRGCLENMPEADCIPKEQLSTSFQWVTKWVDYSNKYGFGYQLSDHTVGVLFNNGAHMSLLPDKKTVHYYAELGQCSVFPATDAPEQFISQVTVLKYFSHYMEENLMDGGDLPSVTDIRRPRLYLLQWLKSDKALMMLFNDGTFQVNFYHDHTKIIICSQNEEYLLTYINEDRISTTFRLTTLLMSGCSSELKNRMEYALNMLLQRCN

IC50 [1]: Not Active
IC50 [2]: Not Active
Compound: CC[C@H](C)[C@H](NC(=O)[C@H](C)NC(=O)[C@@H](NC(=O)[C@H](CO)NC(=O)[C@H](Cc1cnc[nH]1)NC(=O)[C@H](CC(C)C)NC(=O)[C@@H]1CCCN1C(=O)[C@@H]1CCCN1C(=O)[C@H](CC(=O)O)NC(=O)[C@H](Cc1ccc(F)cc1)NC(=O)[C@@H](NC(=O)[C@H](CCC(N)=O)NC(C)=O)[C@@H](C)O)[C@@H](C)OP(=O)(O)O)C(=O)N[C@@H](Cc1ccc(O)cc1)C(=O)N[C@@H](C)C(=O)N[C@@H](CC(N)=O)C(N)=O (Ac-QT[Phe(4-F)]DPPLHS[pT]AIYAN-NH2)

IC50 [1]: Not Active
IC50 [2]: Not Active
Compound: CC[C@H](C)[C@H](NC(=O)[C@H](C)NC(=O)[C@@H](NC(=O)[C@H](CO)NC(=O)[C@H](Cc1cnc[nH]1)NC(=O)[C@H](CC(C)C)NC(=O)[C@@H]1CCCN1C(=O)[C@@H]1CCCN1C(=O)[C@H](CC(=O)O)NC(=O)[C@H](Cc1ccc(Cl)c(Cl)c1)NC(=O)[C@H](CCC(N)=O)NC(C)=O)[C@@H](C)O)C(=O)N[C@@H](Cc1ccc(O)cc1)C(=O)N[C@@H](C)C(=O)N[C@@H](CC(N)=O)C(N)=O (Ac-Q[Phe(3,4-Cl2)]DPPLHSTAIYAN-NH2)

IC50 [1]: Not Active
IC50 [2]: Not Active
Compound: CC[C@H](C)[C@H](NC(=O)[C@H](C)NC(=O)[C@@H](NC(=O)[C@H](CO)NC(=O)[C@H](Cc1cnc[nH]1)NC(=O)[C@H](CC(C)C)NC(=O)[C@@H]1CCCN1C(=O)[C@@H]1CCCN1C(=O)[C@H](CC(=O)O)NC(=O)[C@H](Cc1ccc([N+](=O)[O-])cc1)NC(=O)[C@@H](NC(=O)[C@H](CCC(N)=O)NC(C)=O)[C@@H](C)O)[C@@H](C)OP(=O)(O)O)C(=O)N[C@@H](Cc1ccc(O)cc1)C(=O)N[C@@H](C)C(=O)N[C@@H](CC(N)=O)C(N)=O (Ac-QT[Phe(4-NO2)]DPPLHS[pT]AIYAN-NH2)

IC50 ([1]; read-out: IC50): 0.716 µM
IC50 [2]: Not Active
Compound: CC[C@H](C)[C@H](NC(=O)[C@H](C)NC(=O)[C@@H](NC(=O)[C@H](CO)NC(=O)[C@H](Cc1cnc[nH]1)NC(=O)[C@H](CC(C)C)NC(=O)[C@@H]1CCCN1C(=O)[C@@H]1CCCN1C(=O)[C@H](CC(=O)O)NC(=O)[C@H](Cc1ccc(Cl)c(Cl)c1)NC(C)=O)[C@@H](C)OP(=O)(O)O)C(=O)N[C@@H](Cc1ccc(O)cc1)C(=O)N[C@@H](C)C(=O)N[C@@H](CC(N)=O)C(N)=O (Ac-[Phe(3,4-Cl2)]DPPLHS[pT]AIYAN-NH2)

IC50 [1]: Not Active
Drug uptake [20]: Active
Compound: CC[C@H](C)[C@H](NC(=O)[C@H](C)NC(=O)[C@@H](NC(=O)[C@H](CO)NC(=O)[C@H](Cc1cnc[nH]1)NC(=O)[C@H](CC(C)C)NC(=O)[C@@H]1CCCN1C(=O)[C@@H]1CCCN1C(=O)[C@H](CC(=O)O)NC(=O)[C@H](Cc1ccc(Cl)c(Cl)c1)NC(=O)[C@@H](NC(=O)[C@H](CCC(N)=O)NC(C)=O)[C@@H](C)O)[C@@H](C)OP(=O)(O)O)C(=O)N[C@@H](Cc1ccc(O)cc1)C(=O)N[C@@H](C)C(=O)N[C@@H](CC(N)=O)C(N)=O (Ac-QT[Phe(3,4-Cl2)]DPPLHS[pT]AIYAN-NH2)
viability at 5 µM (HeLa [3]): 83.7%
Activity (HeLa [4]): 71%
Activity (HeLa [5]): inactive
Activity (HeLa [6]): Active
Activity (HeLa [7]): 0.2%
Activity (HeLa [8]): 46.9%
Activity (HeLa [9]): Active
Activity (HeLa [10]): Dose-dependent effect
viability at 10 µM (HeLa [11]): 68.6%
Activity (HeLa [12]): 5.9%
Activity (HeLa [13]): 0.2%
viability at 20 µM (HeLa [14]): 50.8%
Activity (HeLa [15]): 40%
Activity (HeLa [16]): Active
Activity (HeLa [17]): 0.1%
Activity (HeLa [18]): 14.6%
Activity (HeLa [19]): Dose-dependent effect
Activity (HeLa [21]): 1.6%
Activity (HeLa [22]): 24.37 - 67.66%
Activity (HeLa [23]): Dose-dependent effect
Activity (HeLa [24]): Active
Activity (HeLa [25]): 2.1%
Activity (HeLa [26]): Active
Activity (HeLa [27]): Active
Activity (HeLa [28]): 25.2%
Activity (HeLa [29]): Active

IC50 ([1]; read-out: IC50): 13.4 µM
IC50 [2]: Not Active
Compound: CC[C@H](C)[C@H](NC(=O)[C@H](C)NC(=O)[C@@H](NC(=O)[C@H](CO)NC(=O)[C@H](Cc1cnc[nH]1)NC(=O)[C@H](CC(C)C)NC(=O)[C@@H]1CCCN1C(=O)[C@@H]1CCCN1C(=O)[C@H](CC(=O)O)NC(=O)[C@H](Cc1ccccc1)NC(C)=O)[C@@H](C)OP(=O)(O)O)C(=O)N[C@@H](Cc1ccc(O)cc1)C(=O)N[C@@H](C)C(=O)N[C@@H](CC(N)=O)C(N)=O (Ac-FDPPLHS[pT]AIYAN-NH2)
viability at 5 µM (HeLa [3]): 100%
Activity (HeLa [7]): 0%
Activity (HeLa [8]): 0%
viability at 10 µM (HeLa [11]): 100%
Activity (HeLa [12]): 0%
Activity (HeLa [13]): 0%
viability at 20 µM (HeLa [14]): 100%
Activity (HeLa [17]): 0%
Activity (HeLa [18]): 0%
Activity (HeLa [21]): 0%
Activity (HeLa [22]): inactive
Activity (HeLa [25]): 0%
Activity (HeLa [28]): 0%

IC50 [1]: Not Active
IC50 [2]: Not Active
Compound: CC[C@H](C)[C@H](NC(=O)[C@H](C)NC(=O)[C@@H](NC(=O)[C@H](CO)NC(=O)[C@H](Cc1cnc[nH]1)NC(=O)[C@H](CC(C)C)NC(=O)[C@@H]1CCCN1C(=O)[C@@H]1CCCN1C(=O)[C@H](CC(=O)O)NC(=O)[C@H](Cc1ccc(OC)cc1)NC(=O)[C@@H](NC(=O)[C@H](CCC(N)=O)NC(C)=O)[C@@H](C)O)[C@@H](C)OP(=O)(O)O)C(=O)N[C@@H](Cc1ccc(O)cc1)C(=O)N[C@@H](C)C(=O)N[C@@H](CC(N)=O)C(N)=O (Ac-QTY(Me)DPPLHS[pT]AIYAN-NH2)

IC50 [1]: Not Active
IC50 [2]: Not Active
Compound: CC[C@H](C)[C@H](NC(=O)[C@H](C)NC(=O)[C@@H](NC(=O)[C@H](CO)NC(=O)[C@H](Cc1cnc[nH]1)NC(=O)[C@H](CC(C)C)NC(=O)[C@@H]1CCCN1C(=O)[C@@H]1CCCN1C(=O)[C@H](CC(=O)O)NC(=O)[C@H](Cc1ccc(Cl)cc1)NC(=O)[C@@H](NC(=O)[C@H](CCC(N)=O)NC(C)=O)[C@@H](C)O)[C@@H](C)OP(=O)(O)O)C(=O)N[C@@H](Cc1ccc(O)cc1)C(=O)N[C@@H](C)C(=O)N[C@@H](CC(N)=O)C(N)=O (Ac-QT[Phe(4-Cl)]DPPLHS[pT]AIYAN-NH2)

IC50 [1]: Not Active
IC50 [2]: Not Active
Compound: CC[C@H](C)[C@H](NC(=O)[C@H](C)NC(=O)[C@@H](NC(=O)[C@H](CO)NC(=O)[C@H](Cc1cnc[nH]1)NC(=O)[C@H](CC(C)C)NC(=O)[C@@H]1CCCN1C(=O)[C@@H]1CCCN1C(=O)[C@H](CC(=O)O)NC(=O)[C@H](Cc1ccc(Cl)c(Cl)c1)NC(=O)[C@@H](NC(C)=O)[C@@H](C)O)[C@@H](C)OP(=O)(O)O)C(=O)N[C@@H](Cc1ccc(O)cc1)C(=O)N[C@@H](C)C(=O)N[C@@H](CC(N)=O)C(N)=O (Ac-T[Phe(3,4-Cl2)]DPPLHS[pT]AIYAN-NH2)
